Laboratory results taken from ChEMBL document CHEMBL1828590 (J Med Chem, 2011).

Key:
[1] = molecular target: Histone deacetylase 1 (Homo sapiens, UniProt Q13547)
Description: Inhibition of full length recombinant HDAC1 using Fluor de Lys as substrate by fluorescence assay

[2] = system: COLO 205; test: Antiproliferative activity against human COLO205 cells after 96 hrs by celltiter 96 assay; assay type: functional, cell-based; details: COLO 205, 96 h
[3] = system: A2780; test: Antiproliferative activity against human A2780 cells after 96 hrs by celltiter 96 assay; assay type: functional, cell-based; details: A2780, 96 h
[4] = system: PC-3; test: Antiproliferative activity against human PC3 cells after 96 hrs by celltiter 96 assay; assay type: functional, cell-based; details: PC-3, 96 h
[5] = system: HCT-116; test: Antiproliferative activity against human HCT116 cells after 96 hrs by celltiter 96 assay; assay type: functional, cell-based; details: HCT-116, 96 h

Sequence of Histone deacetylase 1 (Q13547 whole entry): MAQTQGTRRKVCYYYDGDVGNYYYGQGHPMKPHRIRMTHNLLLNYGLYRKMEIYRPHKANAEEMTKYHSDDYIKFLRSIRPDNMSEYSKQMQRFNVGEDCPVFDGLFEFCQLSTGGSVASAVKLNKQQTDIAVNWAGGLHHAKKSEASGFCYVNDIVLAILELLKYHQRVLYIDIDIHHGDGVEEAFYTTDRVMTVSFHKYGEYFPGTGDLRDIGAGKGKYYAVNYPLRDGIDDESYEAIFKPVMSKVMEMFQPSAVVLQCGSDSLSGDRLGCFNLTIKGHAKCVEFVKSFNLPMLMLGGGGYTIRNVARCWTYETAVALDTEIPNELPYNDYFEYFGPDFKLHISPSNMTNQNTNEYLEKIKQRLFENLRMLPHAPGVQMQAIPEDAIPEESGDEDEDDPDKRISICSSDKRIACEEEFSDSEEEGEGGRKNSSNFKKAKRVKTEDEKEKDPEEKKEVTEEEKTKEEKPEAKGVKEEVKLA

Row | IC50 [1] [nM] | IC50 [2] [nM] | IC50 [3] [nM] | IC50 [4] [nM] | IC50 [5] [nM] | SMILES
1 | 150 | 2230 |  |  |  | CCCCc1nc2cc(/C=C/C(=O)NO)ccc2n1CC(C)(C)CN(C)C
2 | 41 | 950 |  |  |  | CCCCCc1nc2cc(/C=C/C(=O)NO)ccc2n1CCNC
3 | 190 | 4870 |  |  |  | CCCCc1nc2cc(/C=C/C(=O)NO)ccc2n1C1CCCNC1 (stereo not drawn)
4 | 45 | 540 |  |  |  | CCCCc1nc2cc(/C=C/C(=O)NO)ccc2n1CCN(C)C(C)C
5 | 23 | 140 | 140 | 100 | 270 | CCNCCn1c(CC(C)CC(C)(C)C)nc2cc(/C=C/C(=O)NO)ccc21 (stereo not drawn)
6 | 27 | 420 |  |  |  | CCCCCc1nc2cc(/C=C/C(=O)NO)ccc2n1CCNCC
7 | 32 | 390 | 210 | 530 | 330 | CCN(CC)CCn1c(CC2CC3CCC2C3)nc2cc(/C=C/C(=O)NO)ccc21 (stereo not drawn)
8 | 41 | 450 |  |  |  | CCCCCc1nc2cc(/C=C/C(=O)NO)ccc2n1CCN(C)CC
9 | 308 | 1730 |  |  |  | CC(C)c1nc2cc(/C=C/C(=O)NO)ccc2n1CC(C)(C)CN(C)C
10 | 29 | 550 |  |  |  | CCCCCCc1nc2cc(/C=C/C(=O)NO)ccc2n1CCNC
11 | 15 | 230 |  |  |  | CCCCCCCCc1nc2cc(/C=C/C(=O)NO)ccc2n1CCNC
12 | 158 | 2100 |  |  |  | CCCCCc1nc2cc(/C=C/C(=O)NO)ccc2n1C1CCCN(C)C1 (stereo not drawn)
13 |  | 1650 |  |  |  | CCCCc1nc2cc(/C=C/C(=O)NO)ccc2n1CCN(C)CC
14 | 155 | 980 |  |  |  | CCCc1nc2cc(/C=C/C(=O)NO)ccc2n1CCN(CC)CC
15 | 125 | 1090 |  |  |  | CCCCc1nc2cc(/C=C/C(=O)NO)ccc2n1C1CCN(C)C1 (stereo not drawn)
16 | 22 | 540 |  |  |  | CCCCCCCCc1nc2cc(/C=C/C(=O)NO)ccc2n1CCN
17 |  | 7000 |  |  |  | CCCCc1nc2cc(/C=C/C(=O)NO)ccc2n1C1CCNCC1

Row | IC50 [1] [nM] | IC50 [2] [nM] | IC50 [3] [nM] | IC50 [4] [nM] | IC50 [5] [nM] | SMILES
18 | 335 | 1870 |  |  |  | CCCCc1nc2cc(/C=C/C(=O)NO)ccc2n1CCN(C(C)C)C(C)C
19 | 175 | 690 |  |  |  | CN(C)CCn1c(C2CC2c2ccccc2)nc2cc(/C=C/C(=O)NO)ccc21 (stereo not drawn)
20 | 37 | 150 | 230 | 310 | 410 | CC(Cc1nc2cc(/C=C/C(=O)NO)ccc2n1CC(C)(C)CN(C)C)CC(C)(C)C (stereo not drawn)
21 | 41 | 1460 |  |  |  | CCCCCCc1nc2cc(/C=C/C(=O)NO)ccc2n1C1CCNC1 (stereo not drawn)
22 | 421 | 2450 |  |  |  | CN(C)CC(C)(C)Cn1c(C2CCCCC2)nc2cc(/C=C/C(=O)NO)ccc21
23 | 2490 | 6020 |  |  |  | CCCCc1nc2cc(/C=C/C(=O)NO)ccc2n1CCC(C)C
24 | 84 | 4530 |  |  |  | NCCn1c(C2CC2c2ccccc2)nc2cc(/C=C/C(=O)NO)ccc21 (stereo not drawn)
25 | 90 | 650 |  |  |  | CCCCc1nc2cc(/C=C/C(=O)NO)ccc2n1CCN(C)C
26 | 165 | 2890 |  |  |  | CCCCc1nc2cc(/C=C/C(=O)NO)ccc2n1CCCNC(C)C
27 | 110 | 16400 |  |  |  | CCCCc1nc2cc(/C=C/C(=O)NO)ccc2n1C1CCNC1 (stereo not drawn)
28 | 575 | 6810 |  |  |  | CCN(CC)CCc1nc2cc(/C=C/C(=O)NO)ccc2n1CCC(C)C
29 | 135 | 1190 |  |  |  | CCN(CC)CCn1c(CC(C)(C)C)nc2cc(/C=C/C(=O)NO)ccc21
30 | 105 | 1340 |  |  |  | CCCCCCc1nc2cc(/C=C/C(=O)NO)ccc2n1C1CCCNC1 (stereo not drawn)
31 | 77 | 880 | 760 | 380 | 1110 | CCCCc1nc2cc(/C=C/C(=O)NO)ccc2n1CCNCC
32 | 45 | 420 |  |  |  | CCCCCCc1nc2cc(/C=C/C(=O)NO)ccc2n1CCN(CC)CC
33 | 175 | 2690 |  |  |  | CC(C)Cc1nc2cc(/C=C/C(=O)NO)ccc2n1CC(C)(C)CN(C)C
34 | 169 | 630 |  |  |  | CCN(CC)CCn1c(C2CC2c2ccccc2)nc2cc(/C=C/C(=O)NO)ccc21 (trans isomer)
